From PubChem BioAssay AID248 (DTP/NCI, 2004)
“And” between values parts separate entries of the source, which are not always exact repeats. Equal values may be shown once. Toxic doses and inconclusive results are not listed. No stated cut-off is given here; in the data, active means T/C of 150% or more; inactive means T/C below 125%.

Test system: L1210 leukemia ip in BDF1 mice, survival T/C
Experiment: NCI In Vivo Anticancer Drug Screen. Data for tumor model L1210 Leukemia (intraperitoneal) in B6D2F1 (BDF1) mice
Conditions: endpoint: mean survival time, higher = longer survival
Procedure, shortened: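 Mice bearing the transplanted tumor received compound or vehicle. Survival of the treated group was divided by that of the vehicle-treated control group to give the ratio.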

[1] = dose: 100.0 mg/kg/injection, schedule: Q04DX002 (ip), vehicle: saline with Tween-80
[2] = dose: 200.0 mg/kg/injection, schedule: Q04DX002 (ip), vehicle: saline with Tween-80
[3] = dose: 25.0 mg/kg/injection, schedule: Q01DX009 (ip), vehicle: saline
[4] = dose: 50.0 mg/kg/injection, schedule: Q01DX009 (ip), vehicle: saline
[5] = dose: 50.0 mg/kg/injection, schedule: Q01DX009 (ip), vehicle: other
[6] = dose: 100.0 mg/kg/injection, schedule: Q01DX009 (ip), vehicle: Klucel (hydroxypropylcellulose) (HPC)
[7] = dose: 100.0 mg/kg/injection, schedule: Q01DX009 (ip), vehicle: other
[8] = dose: 100.0 mg/kg/injection, schedule: Q01DX001 (ip), vehicle: saline
[9] = dose: 200.0 mg/kg/injection, schedule: Q01DX001 (ip), vehicle: saline
[10] = dose: 400.0 mg/kg/injection, schedule: Q01DX001 (ip), vehicle: saline
[11] = dose: 100.0 mg/kg/injection, schedule: Q01DX001 (ip), vehicle: carboxymethylcellulose (CMC)
[12] = dose: 50.0 mg/kg/injection, schedule: Q01DX009 (ip), vehicle: Klucel (hydroxypropylcellulose) (HPC)
[13] = dose: 100.0 mg/kg/injection, schedule: Q04DX003 (ip), vehicle: Klucel (hydroxypropylcellulose) (HPC)
[14] = dose: 200.0 mg/kg/injection, schedule: Q01DX009 (ip), vehicle: Klucel (hydroxypropylcellulose) (HPC)
[15] = dose: 200.0 mg/kg/injection, schedule: Q04DX003 (ip), vehicle: Klucel (hydroxypropylcellulose) (HPC)
[16] = dose: 50.0 mg/kg/injection, schedule: Q01DX009 (ip), vehicle: saline with Tween-80
[17] = dose: 100.0 mg/kg/injection, schedule: Q01DX009 (ip), vehicle: saline with Tween-80
[18] = dose: 200.0 mg/kg/injection, schedule: Q01DX009 (ip), vehicle: saline with Tween-80
[19] = dose: 400.0 mg/kg/injection, schedule: Q01DX009 (ip), vehicle: Klucel (hydroxypropylcellulose) (HPC)
[20] = dose: 100.0 mg/kg/injection, schedule: Q04DX003 (ip), vehicle: saline
[21] = dose: 200.0 mg/kg/injection, schedule: Q04DX003 (ip), vehicle: saline

Measured: T/C

O=[N+]([O-])c1ccc(/C([O-])=C(\C(=S)Nc2ccccc2Cl)[n+]2ccccc2)cc1
inactive: [1] 96 % of control | [2] 89 % of control | dose: 400.0 mg/kg/injection, schedule: Q04DX002 (ip), vehicle: saline with Tween-80 96 % of control

CCOC(=O)/C=C(\C)OCC
inactive: [3] 106 % of control | [4] 109 % of control | dose: 100.0 mg/kg/injection, schedule: Q01DX009 (ip), vehicle: saline 109 % of control | dose: 200.0 mg/kg/injection, schedule: Q01DX009 (ip), vehicle: saline 111 % of control | dose: 400.0 mg/kg/injection, schedule: Q01DX009 (ip), vehicle: saline 104 % of control

CC(=O)C1=C(C)NC(C)=C(C(C)=O)C1C
inactive: dose: 55.0 mg/kg/injection, schedule: Q01DX Z (ip), vehicle: saline 97 % of control | dose: 83.0 mg/kg/injection, schedule: Q01DX Z (ip), vehicle: saline 95 % of control | dose: 125.0 mg/kg/injection, schedule: Q01DX Z (ip), vehicle: saline 100 % of control

O=NN(Cc1cnc2[nH]c(=O)[nH]c(=O)c2n1)c1ccc(C(=O)NC(CCC(=O)O)C(=O)O)cc1 (centres undefined)
inactive: dose: 3.13 mg/kg/injection, schedule: Q01DX009 (ip), vehicle: water 100 % of control | dose: 6.25 mg/kg/injection, schedule: Q01DX009 (ip), vehicle: water 102 % of control | dose: 12.5 mg/kg/injection, schedule: Q01DX009 (ip), vehicle: water 88 % of control | dose: 25.0 mg/kg/injection, schedule: Q01DX009 (ip), vehicle: water 98 % of control | dose: 50.0 mg/kg/injection, schedule: Q01DX009 (ip), vehicle: water 93 % of control

O=C(Nc1ccc(C(Cl)(Cl)Cl)cc1)Nc1cc(Cl)ccc1Cl
inactive: dose: 25.0 mg/kg/injection, schedule: Q01DX009 (ip), vehicle: other 109 % of control | [5] 93 % of control | [6] 93 % of control | [7] 95 % of control

O=C(O)C(=O)O.[Co+3].[NH-]C(Cc1ccccc1)C(=O)[O-].[NH-]CCN(CC[NH-])CC[NH-] (centres undefined)
inactive: dose: 50.0 mg/kg/injection, schedule: Q01DX001 (ip), vehicle: saline 110 % of control | [8] 105 % of control | [9] 104 % of control | [10] 102 % of control

CSc1ncnc2n[nH]c(Br)c12
inactive: dose: 100.0 mg/kg/injection, schedule: Q01DX005 (ip), vehicle: saline 93 % of control

COc1cc(O)c([N+](=O)[O-])cc1[N+](=O)[O-]
inactive: [11] 96 % of control | dose: 200.0 mg/kg/injection, schedule: Q01DX001 (ip), vehicle: carboxymethylcellulose (CMC) 91 % of control | dose: 400.0 mg/kg/injection, schedule: Q01DX001 (ip), vehicle: carboxymethylcellulose (CMC) 100 % of control

Cc1ccc(NC(=S)N2CCC(CCCC3CCN(C(=S)Nc4ccc(C)cc4C)CC3)CC2)c(C)c1
inactive: [12] 98 % of control | [6] 107 % of control | [13] 97 % of control | [14] 95 % of control | [15] 95 % of control

CC(C)(C)C1=CC(=O)C(C(C)(C)C)=CC1=O
inactive: [16] 104 % of control | [17] 98 % of control | [18] 95 % of control

CN(C)C=Nc1ccccc1
inactive: [6] 109 % of control | [13] 111 % of control | [14] 101 % of control | [15] 97 % of control | [19] 100 % of control | dose: 400.0 mg/kg/injection, schedule: Q04DX003 (ip), vehicle: Klucel (hydroxypropylcellulose) (HPC) 93 % of control

C/C=C\C(=O)OCC(C)CCC (centres undefined)
inactive: [1] 97 % of control | [2] 102 % of control

CC(C)CC(CC(C)C)NCCOC(=O)Cc1ccccc1
inactive: dose: 75.0 mg/kg/injection, schedule: Q01DX001 (ip), vehicle: other 93 % of control | dose: 150.0 mg/kg/injection, schedule: Q01DX001 (ip), vehicle: other 89 % of control

O=C1NOCC1NCc1c(O)ccc2ccccc12 (centres undefined)
inactive: dose: 100.0 mg/kg/injection, schedule: Q04DX003 (ip), vehicle: saline with Tween-80 87 % of control | dose: 200.0 mg/kg/injection, schedule: Q04DX003 (ip), vehicle: saline with Tween-80 100 % of control | dose: 400.0 mg/kg/injection, schedule: Q04DX003 (ip), vehicle: saline with Tween-80 97 % of control

COC(C)C/C=N/Nc1nnc(N/N=C/CC(C)OC)c2ccccc12 (centres undefined)
inactive: dose: 5.0 mg/kg/injection, schedule: Q01DX001 (ip), vehicle: carboxymethylcellulose (CMC) 96 % of control | dose: 10.0 mg/kg/injection, schedule: Q01DX001 (ip), vehicle: carboxymethylcellulose (CMC) 93 % of control

Cc1ccc(NC(=O)N(CCO)N=O)cc1
inactive: dose: 12.5 mg/kg/injection, schedule: Q01DX001 (ip), vehicle: carboxymethylcellulose (CMC) 110 % of control | dose: 25.0 mg/kg/injection, schedule: Q01DX001 (ip), vehicle: carboxymethylcellulose (CMC) 105 % of control | dose: 50.0 mg/kg/injection, schedule: Q01DX001 (ip), vehicle: carboxymethylcellulose (CMC) 103 % of control and 108 % of control | [11] 100 % of control

Cc1ccc(S(=O)(=O)OC2CN3CCC2CC3)cc1 (centres undefined)
inactive: dose: 12.5 mg/kg/injection, schedule: Q01DX009 (ip), vehicle: saline 95 % of control | [3] 100 % of control | [4] 101 % of control and 102 % of control

O=C(OCCN1C(=O)c2cccc3c(Br)ccc(c23)C1=O)OCc1ccccc1
inactive: dose: 100.0 mg/kg/injection, schedule: Q04DX002 (ip), vehicle: alcohol 103 % of control | dose: 200.0 mg/kg/injection, schedule: Q04DX002 (ip), vehicle: alcohol 100 % of control | dose: 400.0 mg/kg/injection, schedule: Q04DX002 (ip), vehicle: alcohol 100 % of control

O=C1CC(CC(=O)C2CCCC2=O)CC(=O)N1 (centres undefined)
inactive: [8] 101 % of control | [9] 100 % of control | [10] 108 % of control

CCN(CC)CC(C)(N)c1c2ccccc2nc2c1ccc1ccccc12 (centres undefined)
inactive: [5] 101 % of control | [7] 111 % of control | dose: 200.0 mg/kg/injection, schedule: Q01DX009 (ip), vehicle: other 119 % of control

CCOC(=O)C(C)(C(=O)OCC)c1ccccc1
inactive: [17] 97 % of control | [20] 97 % of control | [18] 95 % of control | [21] 97 % of control | dose: 400.0 mg/kg/injection, schedule: Q01DX009 (ip), vehicle: saline with Tween-80 95 % of control | dose: 400.0 mg/kg/injection, schedule: Q04DX003 (ip), vehicle: saline 98 % of control

COc1cc(/C=N/NC(=O)CNC(=O)NCc2ccccc2)ccc1O
inactive: [16] 92 % of control | [17] 95 % of control

Cc1c(Br)c(=O)n(-c2ccccc2)n1C
inactive: [12] 94 % of control | [6] 98 % of control | [13] 101 % of control | [14] 100 % of control | [15] 100 % of control

O=C(OC(=Nc1ccc([N+](=O)[O-])cc1)c1cc(N2CCCC2)ccn1)c1ccc(-c2ccccc2)cc1
inactive: [8] 98 % of control | [9] 97 % of control | [10] 92 % of control

CC(=O)N1C(=O)c2ccccc2C1=O
inactive: dose: 100.0 mg/kg/injection, schedule: Q01DX001 (ip), vehicle: Klucel (hydroxypropylcellulose) (HPC) 95 % of control | [6] 93 % of control | dose: 200.0 mg/kg/injection, schedule: Q01DX001 (ip), vehicle: Klucel (hydroxypropylcellulose) (HPC) 92 % of control | [14] 93 % of control | dose: 400.0 mg/kg/injection, schedule: Q01DX001 (ip), vehicle: Klucel (hydroxypropylcellulose) (HPC) 92 % of control | [19] 90 % of control

O=C(C[n+]1ccc(-c2ccccc2)cc1)c1ccccc1
inactive: [20] 109 % of control | [21] 105 % of control

NC(=S)N/N=C/c1ccc(Cl)s1
inactive: dose: 25.0 mg/kg/injection, schedule: Q04DX002 (ip), vehicle: Klucel (hydroxypropylcellulose) (HPC) 95 % of control | dose: 50.0 mg/kg/injection, schedule: Q04DX002 (ip), vehicle: Klucel (hydroxypropylcellulose) (HPC) 95 % of control | dose: 100.0 mg/kg/injection, schedule: Q04DX002 (ip), vehicle: Klucel (hydroxypropylcellulose) (HPC) 98 % of control and 100 % of control
